Measured values: ChEMBL document CHEMBL5634133, “Indirubin derivatives as bifunctional molecules inducing DNA damage and targeting PARP for the treatment of cancer” (Eur J Med Chem, 2023)
The source made the active and inactive calls. The calls are words filed in the database; no cut-off is given here.

Experiments:
MCF7 = assay: Antiproliferative activity against human MCF7 cells assessed as inhibition of cell viability incubated for 72 hrs by CCK8 assay; type: functional, cell-based; details: MCF7, 72 h
[1] = Half life in BALB/c mouse at 20 mg/kg, po and measured after 24 hrs by LC-MS/MS analysis; type: ADME, organism-based; details: in vivo
HCT-116 [2] = assay: Induction of apoptosis in human HCT-116 cells assessed as decrease in Caspase-3 protein expression level by Western blotting analysis; type: functional, cell-based; details: dose 0.25-1 µM
HCT-116 [3] = assay: Antiproliferative activity against human HCT-116 cells assessed as decrease in number of EdU-positive cells at 0.25 to 1 uM incubated for 48 hrs in presence of EdU labeling agent by Hoechst staining based confocal microscopy; type: functional, cell-based; details: dose 0.25-1 µM
HCT-116 [4] = assay: Antiproliferative activity against human HCT-116 cells assessed as inhibition of cell viability incubated for 72 hrs by CCK8 assay; type: functional, cell-based; details: HCT-116, 72 h
MV4-11 = assay: Antiproliferative activity against human MV4-11 cells assessed as inhibition of cell viability incubated for 72 hrs by CCK8 assay; type: functional, cell-based; details: MV4-11, 72 h
HCT-116 [5] = assay: Antitumor activity against human HCT-116 cells xenografted in BALB/c nude mouse assessed as tumor growth inhibition at 20 mg/kg, ip administered for 14 days relative to control; type: functional; details: Mus musculus, HCT-116, 336 h, time 14 day, read-out: TGI
[6] = biological target: T1, Poly [ADP-ribose] polymerase 1 (Homo sapiens, UniProt P09874); assay: Inhibition of PARP1 (unknown origin) incubated for 10 mins by chemiluminescence assay
HCT-116 [7] = assay: Induction of apoptosis in human HCT-116 cells assessed as viable cells at 0.5 uM incubated for 48 hrs by Annexin V-PE/7-AAD staining based flow cytometry analysis (reference value: 92.8 %); type: functional; details: read-out: Activity
HCT-116 [8] = assay: Induction of apoptosis in human HCT-116 cells assessed as early apoptotic cells at 0.25 uM incubated for 48 hrs by Annexin V-PE/7-AAD staining based flow cytometry analysis (reference value: 6.78 %); type: functional
HCT-116 [9] = assay: Antiproliferative activity against human HCT-116 cells transfected with PARP1 siRNA assessed as inhibition of cell viability at 0.5 uM incubated for 72 hrs by CCK8 assay; type: functional, cell-based
HCT-116 [10] = assay: Antitumor activity against human HCT-116 cells xenografted in BALB/c nude mouse assessed as tumor growth inhibition at 10 mg/kg, ip administered for 14 days relative to control; type: functional; details: HCT-116, 336 h, time 14 day, read-out: TGI
HCT-116 [11] = assay: Induction of apoptosis in human HCT-116 cells assessed as late apoptotic cells at 1 uM incubated for 48 hrs by Annexin V-PE/7-AAD staining based flow cytometry analysis (reference value: 0.39 %); type: functional
HCT-116 [12] = assay: Induction of apoptosis in human HCT-116 cells assessed as increase in Cleaved-PARP protein expression level by Western blotting analysis; type: functional, cell-based; details: dose 0.25-1 µM
HCT-116 [13] = assay: […] in human HCT-116 cells assessed as decrease in accumulation of cells at G2/M phase at 0.25 to 1 uM incubated for 48 hrs by propidium iodide staining based flow cytometry analysis (Rvb =34.99%); type: functional; design: scale not given: the % may be the effect or the level left; details: dose 0.25-1 µM
HCT-116 [14] = assay: Induction of apoptosis in human HCT-116 cells assessed as early apoptotic cells at 1 uM incubated for 48 hrs by Annexin V-PE/7-AAD staining based flow cytometry analysis (reference value: 6.78 %); type: functional
HCT-116 [15] = assay: Induction of apoptosis in human HCT-116 cells assessed as increase in accumulation of cells at S phase at 0.25 to 1 uM incubated for 48 hrs by propidium iodide staining based flow cytometry analysis (reference value: 24.67%); type: functional; details: dose 0.25-1 µM
HCT-116 [16] = assay: Induction of DNA damage in human HCT-116 cells assessed as increase in gammaH2AX phosphorylation level incubated for 48 hrs by DAPI staining based immunofluorescence analysis; type: functional, cell-based; details: dose 0.25-1 µM
NCM460 = assay: Antiproliferative activity against human NCM460 cells assessed as inhibition of cell viability incubated for 72 hrs by CCK8 assay; type: functional, cell-based; details: NCM460, 72 h
[17] = AUC(0 to infinity) in BALB/c mouse at 20 mg/kg, po and measured after 24 hrs by LC-MS/MS analysis; type: ADME, organism-based; details: in vivo
[18] = Toxicity in BALB/c nude mouse xenografted with human HCT-116 cells assessed as change in body weight at 20 mg/kg, ip administered for 14 days; type: organism-based; details: in vivo, 336 h, time 14 day
HCT-116 [19] = assay: Antiproliferative activity against human HCT-116 cells assessed as inhibition of colony formation incubated for 48 hrs medium replaced with every 14 days by crystal violet staining based optical microscope; type: functional, cell-based; details: time 14.0 day
HCT-116 [20] = assay: Antitumor activity against human HCT-116 cells xenografted in BALB/c nude mouse assessed as suppression of tumor growth at 10 mg/kg, ip administered for 14 days relative to control; type: functional, organism-based; details: time 14.0 day
HCT-116 [21] = assay: Induction of apoptosis in human HCT-116 cells assessed as necrotic cells at 1 uM incubated for 48 hrs by Annexin V-PE/7-AAD staining based flow cytometry analysis (reference value: 0 %); type: functional
HCT-116 [22] = assay: Induction of apoptosis in human HCT-116 cells assessed as decrease in Bcl-2 protein expression level by Western blotting analysis; type: functional, cell-based; details: dose 0.25-1 µM
A549 = assay: Antiproliferative activity against human A549 cells assessed as inhibition of cell viability incubated for 72 hrs by CCK8 assay; type: functional, cell-based; details: A549, 72 h
HCT-116 [23] = assay: Induction of apoptosis in human HCT-116 cells assessed as necrotic cells at 0.5 uM incubated for 48 hrs by Annexin V-PE/7-AAD staining based flow cytometry analysis (reference value: 0 %); type: functional
HCT-116 [24] = assay: Induction of apoptosis in human HCT-116 cells assessed as late apoptotic cells at 0.5 uM incubated for 48 hrs by Annexin V-PE/7-AAD staining based flow cytometry analysis (reference value: 0.39 %); type: functional
HCT-116 [25] = assay: Antitumor activity against human HCT-116 cells xenografted in BALB/c nude mouse assessed as reduction in tumor weight at 10 mg/kg, ip administered for 14 days relative to control; type: functional, organism-based; details: time 14.0 day
HCT-116 [26] = assay: Induction of apoptosis in human HCT-116 cells assessed as late apoptotic cells at 0.25 uM incubated for 48 hrs by Annexin V-PE/7-AAD staining based flow cytometry analysis (reference value: 0.39 %); type: functional
[27] = Clearance in BALB/c mouse at 20 mg/kg, po and measured after 24 hrs by LC-MS/MS analysis; type: ADME, organism-based; details: in vivo
HCT-116 [28] = assay: Induction of apoptosis in human HCT-116 cells assessed as increase in Cleaved-Caspase-3 protein expression level by Western blotting analysis; type: functional, cell-based; details: dose 0.25-1 µM
HCT-116 [29] = assay: Induction of apoptosis in human HCT-116 cells assessed as viable cells at 1 uM incubated for 48 hrs by Annexin V-PE/7-AAD staining based flow cytometry analysis (reference value: 92.8 %); type: functional; details: read-out: Activity
HCT-116 [30] = assay: Induction of apoptosis in human HCT-116 cells assessed as early apoptotic cells at 0.5 uM incubated for 48 hrs by Annexin V-PE/7-AAD staining based flow cytometry analysis (reference value: 6.78 %); type: functional
HCT-116 [31] = assay: Induction of apoptosis in human HCT-116 cells assessed as necrotic cells at 0.25 uM incubated for 48 hrs by Annexin V-PE/7-AAD staining based flow cytometry analysis (reference value: 0 %); type: functional
HCT-116 [32] = assay: Induction of DNA damage in human HCT-116 cells assessed as increase in gammaH2AX phosphorylation level incubated for 48 hrs by Western blotting analysis; type: functional, cell-based; details: dose 0.25-1 µM
[33] = biological target: T1, Poly [ADP-ribose] polymerase 1; details: dose 10.0 nM, time 10.0 min
HCT-116 [34] = assay: Induction of apoptosis in human HCT-116 cells assessed as viable cells at 0.25 uM incubated for 48 hrs by Annexin V-PE/7-AAD staining based flow cytometry analysis (reference value: 92.8 %); type: functional; details: read-out: Activity
HCT-116 [35] = assay: Induction of apoptosis in human HCT-116 cells assessed as increase in Bax protein expression level by Western blotting analysis; type: functional, cell-based; details: dose 0.25-1 µM
[36] = AUC(0 to t) in BALB/c mouse at 20 mg/kg, po and measured after 24 hrs by LC-MS/MS analysis; type: ADME, organism-based; details: in vivo
[37] = Cmax in BALB/c mouse at 20 mg/kg, po and measured after 24 hrs by LC-MS/MS analysis; type: ADME, organism-based; details: in vivo
[38] = biological target: T1, Poly [ADP-ribose] polymerase 1; assay: Inhibition of PARP1 in human HCT-116 cells assessed as inhibition of PARP-induced PARylation incubated for 48 hrs by Western blotting analysis; type: cell-based; details: dose 0.25-1 µM
[39] = Toxicity in BALB/c nude mouse xenografted with human HCT-116 cells assessed as tissue morphology at 20 mg/kg, ip administered for 14 days by hematoxylin and eosin staining based assay; type: organism-based; details: in vivo, 336 h, time 14 day

T1 sequence (P09874 whole entry): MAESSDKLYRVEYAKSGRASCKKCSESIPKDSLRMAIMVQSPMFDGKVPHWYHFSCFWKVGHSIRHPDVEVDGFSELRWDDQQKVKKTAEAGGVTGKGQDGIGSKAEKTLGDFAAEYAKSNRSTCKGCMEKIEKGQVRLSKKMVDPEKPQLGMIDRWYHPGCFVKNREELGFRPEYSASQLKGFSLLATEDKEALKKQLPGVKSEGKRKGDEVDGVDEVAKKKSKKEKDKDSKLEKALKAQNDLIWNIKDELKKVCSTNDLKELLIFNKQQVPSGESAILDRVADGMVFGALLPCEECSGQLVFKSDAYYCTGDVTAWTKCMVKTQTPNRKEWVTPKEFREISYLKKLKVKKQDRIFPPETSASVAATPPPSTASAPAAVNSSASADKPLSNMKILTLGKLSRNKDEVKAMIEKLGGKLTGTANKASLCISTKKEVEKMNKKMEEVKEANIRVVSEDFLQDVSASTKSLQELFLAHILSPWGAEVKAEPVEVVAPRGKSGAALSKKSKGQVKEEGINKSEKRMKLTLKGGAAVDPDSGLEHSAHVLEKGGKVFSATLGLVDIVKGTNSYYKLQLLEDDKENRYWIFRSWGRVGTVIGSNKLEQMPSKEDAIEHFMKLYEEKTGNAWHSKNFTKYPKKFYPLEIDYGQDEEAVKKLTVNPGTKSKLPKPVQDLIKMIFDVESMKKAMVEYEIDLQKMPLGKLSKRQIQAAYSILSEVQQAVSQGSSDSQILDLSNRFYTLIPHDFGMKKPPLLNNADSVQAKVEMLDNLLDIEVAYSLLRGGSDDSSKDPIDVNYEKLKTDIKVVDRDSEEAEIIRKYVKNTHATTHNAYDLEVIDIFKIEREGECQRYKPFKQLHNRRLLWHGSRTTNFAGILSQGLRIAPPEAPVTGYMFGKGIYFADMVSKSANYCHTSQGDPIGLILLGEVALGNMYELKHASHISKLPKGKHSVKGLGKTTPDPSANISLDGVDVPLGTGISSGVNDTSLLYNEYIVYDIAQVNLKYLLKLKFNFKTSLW

IC50 (MCF7): 1600 nM
half-life [1]: 5.82 h
IC50 (HCT-116 [4]): 310 nM
IC50 (MV4-11): 520 nM
IC50 [6]: 1.89 nM
AUC [17]: 6450 ng·h/mL
IC50 (A549): 3260 nM
CL [27]: 51.65 mL/min/kg
inhibition [33]: 64.8%
AUCt [36]: 5900 ng·h/mL
Cmax [37]: 6040 ng/mL
inhibition [38]: Dose-Dependent Effect
Structure (SMILES): O=C1Nc2ccccc2/C1=C1/Nc2ccccc2/C1=N\OCCCC(=O)N1CCN(C(=O)c2ccc(Cc3n[nH]c(=O)c4ccccc34)cc2F)CC1
Activity (HCT-116 [2]): Dose-Dependent Effect
Activity (HCT-116 [3]): Active
inhibition in vivo at 20 mg/kg (HCT-116 [5]): 86.6%
viability at 0.5 µM (HCT-116 [7]): 83.7%
Activity (HCT-116 [8]): 8.64%
Activity (HCT-116 [9]): inactive
inhibition in vivo at 10 mg/kg (HCT-116 [10]): 75.9%
Activity (HCT-116 [11]): 7.01%
Activity (HCT-116 [12]): Dose-Dependent Effect
Activity (HCT-116 [13]): 10.5%
Activity (HCT-116 [14]): 22.7%
Activity (HCT-116 [15]): 41.03%
Activity (HCT-116 [16]): Dose-Dependent Effect
IC50 (NCM460): > 60000 nM
Activity [18]: Non-Toxic
Activity (HCT-116 [19]): Dose-Dependent Effect
Activity (HCT-116 [20]): Active
Activity (HCT-116 [21]): 0.28%
Activity (HCT-116 [22]): Dose-Dependent Effect
Activity (HCT-116 [23]): 0.11%
Activity (HCT-116 [24]): 1.05%
Activity (HCT-116 [25]): Active
Activity (HCT-116 [26]): 1.76%
Activity (HCT-116 [28]): Dose-Dependent Effect
viability at 1 µM (HCT-116 [29]): 69.4%
Activity (HCT-116 [30]): 14.6%
Activity (HCT-116 [31]): 0.12%
Activity (HCT-116 [32]): Dose-Dependent Effect
viability at 0.25 µM (HCT-116 [34]): 89.3%
Activity (HCT-116 [35]): Dose-Dependent Effect
Activity [39]: Non-Toxic
